Test results as given in patent US20220023269A1, “Methods Of Treating Diabetes In Severe Insulin-Resistant Diabetic Subjects” (Balticgruppen Bio AB, priority 2018, published 2022).

Assays:
[1] = Pharmacokinetics in mice and rats (plasma, liver, brain); format: in vivo; settings: rodents
Description: Pharmacokinetics of the test material in C57BL/6JBomTac mice and NTac:SD rats were determined via UHPLC-ESI Triple Quad MSMS in plasma from non-fasted animals. The test material (40 mg/kg test material) was administered via oral gavage and 4-, 8-, 12- and 24-hours after administration blood was collected. Test material levels were determined in liver and brain from non-fasted Crl:CD (SD) rats administered the test material (40 mg/kg test material), once daily for 3 weeks, via oral gavage. The test material was extracted in acetonitrile and levels determined using UHPLC-ESI Triple Quad MSMS.

CBA mice on HFD = experiment: Echocardiography (LV function); format: in vivo; settings: for heart rate: anesthetized
Description: Left ventricle structure and function were analysed with transthoracic, high-frequency echocardiography using the MS550D transducer. The examination was performed during light isoflurane anaesthesia (1.5-2.0% in 800 mL oxygen). Anaesthesia level was adjusted to keep the respiration rate at 80-110 breaths per minute. Left ventricular volumes were determined in B-mode using a Simpson's rule reconstruction. All images were analysed off-line in a blinded way using the Vevo LAB software 1.7.0. Stroke volume, cardiac output and heart rate were analysed, as well as wall thicknesses and left ventricle diameter. Three measurements/animal was performed for mean values.

INS-1E cells = experiment: Autophagic flux assay; format: cell-based; settings: 5 μM, 24 h, ± 100 nM Bafilomycin A1
Description: INS-1E cells were incubated for 24 h with or without 5 μM test material in the presence or absence of 100 nM Bafilomycin A1 (InvivoGen #tlrl-baf1) during the last 60 min of incubation. Levels of LC3II were determined by Western blot analysis and quantified.

Zucker rats = experiment: Infrared thermal imaging; format: in vivo; settings: 10 mg/kg/day, 12 days
Description: Skin temperature of non-sedated Zucker rats that had been treated with test material (10 mg/kg/day) or vehicle for 12 days was recorded with an infrared camera (FLIR ix series Extech IRC30, FLIR systems Inc.) and analysed with a specific software package (FLIR QuickReport version 1.2 SP2 (1.0.1.217). 9 rats per group was used and mean and maximum skin surface temperatures were measured for each animal 2 hours after final dose administration.

[2] = test material-HFD 0.8 or 2 mg/g, 6 w

With `O=C(Nc1nc(=O)n(Cc2ccc(Cl)cc2)s1)c1ccc(Cl)cc1` [test material, 4-chloro-N-[2-[(4-chlorophenyl)methyl]-3-oxo-1,2,4-thiadiazol-5-yl]benzamide] the blood-brain barrier crossing [1] was “does not cross the blood-brain barrier”, the oral availability [1] was “orally available” and the plasma half-life [1] was “long”. The heart rate (CBA mice on HFD; 0.8 mg/g) was “normalized”, the heart rate (CBA mice on HFD; 2 mg/g) was “reduced heart rate” and the “increase in stroke volume compared with both RD and HFD” value (CBA mice on HFD; test material-HFD 0.8 mg/g and 2 mg/g, 6 w) was ~20%. The end-diastolic volume (CBA mice on HFD; [2]) was “normalized end-diastolic volume”, the end-systolic volume (CBA mice on HFD; [2]) was “dose-dependently improved, but did not fully restore” and the “autophagic flux (LC3II)” value (INS-1E cells) was “enhanced autophagic flux”. The skin-surface temperature (Zucker rats) was “increased”.
